Data published in patent US20230114728A1 (Venatorx Pharmaceuticals, Inc., priority 2019, published 2023).

Assays:
[1] = Bocillin-FL fluorescence polarization competition binding assay, A. baumannii PBP3; details: fluorescence polarization competition binding assay using Bocillin-FL; column 3; read-out: 4. baumannii PBP1a Potency
How it was run: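 Fluorescence polarization (ex 490/em 520 nm) competition of inhibitors against Bocillin-FL at 0.1 μM, read up to 60 min. Final PBP levels: E. coli PBP3 1.5 μM; A. baumannii PBP2 2.5 μM, PBP3 0.2 μM in Tris pH 8.0/NaCl/glycerol/Tween 20; N. gonorrhoeae PBP2 […] in Hepes pH 8.0/NaCl/glycerol. EC50 = concentration halving PBP-bound Bocillin-FL.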

N. gonorrhoeae WHO Q = assay: Liquid broth MIC in Fastidious broth; format: cell-based; details: Neisseria gonorrhoeae, read-out: Minimum Inhibitory Concentration, N. gonorrhoeae WHO Q
How it was run: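 Broth microdilution against gonococcal strains expressing mosaic PBP2, starting inoculum 5×10^5 CFU/mL in Fastidious broth. Incubation runs ~24 h at 36 °C under 5% CO2, with MIC scored visually at <10% of full growth.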

For `CCN1CCN(C(=O)NC(C(=O)N[C@H]2Cc3cccc(C(=O)O)c3OB2O)c2ccc(O)c(NC(=O)c3ccc(O)c(O)c3Cl)c2)C(=O)C1=O` (stereo partly drawn) [Example 74, (3R)-3-(2-(3-(2-chloro-3,4-dihydroxybenzamido)-4-hydroxyphenyl)-2-(4-ethyl-2,3-dioxopiperazine-1-carboxamido)acetamido)-2-hydroxy-3,4-dihydro-2H-benzo[e][1,2]oxaborinine-8-carboxylic acid], the EC50 [1] was under 10 µM and the MIC (N. gonorrhoeae WHO Q) was over 64 µg/mL.

`O=C(O)c1ccc(C(NC(=O)c2c(F)cc(O)c(O)c2Cl)C(=O)N[C@H]2Cc3ccc(F)c(C(=O)O)c3OB2O)cc1F` (stereo partly drawn) [Example 71, (3R)-3-(2-(4-carboxy-3-fluorophenyl)-2-(2-chloro-6-fluoro-3,4-dihydroxybenzamido)acetamido)-7-fluoro-2-hydroxy-3,4-dihydro-2H-benzo[e][1,2]oxaborinine-8-carboxylic acid] showed an EC50 [1] of over 100 µM and an MIC (N. gonorrhoeae WHO Q) of over 64 µg/mL.

Compound `CC(C)(C)[C@@H](NC(=O)N1CCN(CCNC(=O)c2c(F)cc(O)c(O)c2Cl)C(=O)C1=O)C(=O)N[C@H]1Cc2ccc(F)c(C(=O)O)c2OB1O` [Example 80, (R)-3-((R)-2-(4-(2-(2-chloro-6-fluoro-3,4-dihydroxybenzamido)ethyl)-2,3-dioxopiperazine-1-carboxamido)-3,3-dimethylbutanamido)-7-fluoro-2-hydroxy-3,4-dihydro-2H-benzo[e][1,2]oxaborinine-8-carboxylic acid] has an EC50 [1] of under 10 µM and an MIC (N. gonorrhoeae WHO Q) of over 64 µg/mL.

For `CCN1CCN(C(=O)NC(C(=O)N[C@H]2Cc3ccc(F)c(C(=O)O)c3OB2O)c2ccc(C(=O)O)cc2)C(=O)C1=O` (stereo partly drawn) [Example 15, (3R)-3-(2-(4-carboxyphenyl)-2-(4-ethyl-2,3-dioxopiperazine-1-carboxamido)acetamido)-7-fluoro-2-hydroxy-3,4-dihydro-2H-benzo[e][1,2]oxaborinine-8-carboxylic acid], the EC50 [1] was over 100 µM.

For `O=C(O)c1c(F)ccc2c1OB(O)[C@@H](NC(=O)C(NC(=O)N1CCN(CCF)C(=O)C1=O)c1c(F)cc(O)c(O)c1F)C2` (stereo partly drawn) [Example 37, (3R)-3-(2-(2,6-difluoro-3,4-dihydroxyphenyl)-2-(4-(2-fluoroethyl)-2,3-dioxopiperazine-1-carboxamido)acetamido)-7-fluoro-2-hydroxy-3,4-dihydro-2H-benzo[e][1,2]oxaborinine-8-carboxylic acid], the EC50 [1] was 30 to 100 µM.

Work on `CCN1CCN(C(=O)NC(C(=O)N[C@H]2Cc3ccc(F)c(C(=O)O)c3OB2O)c2cc(F)c(O)c(O)c2Cl)C(=O)C1=O` (stereo partly drawn) [Example 42, (3R)-3-(2-(2-chloro-5-fluoro-3,4-dihydroxyphenyl)-2-(4-ethyl-2,3-dioxopiperazine-1-carboxamido)acetamido)-7-fluoro-2-hydroxy-3,4-dihydro-2H-benzo[e][1,2]oxaborinine-8-carboxylic acid] yielded an EC50 [1] of 30 to 100 µM.

Work on `NCCCN1CCN(C(=O)NC(C(=O)N[C@H]2Cc3cccc(C(=O)O)c3OB2O)c2ccc(C(=O)O)cc2)C(=O)C1=O` (stereo partly drawn) [Example 39, (3R)-3-(2-(4-(3-aminopropyl)-2,3-dioxopiperazine-1-carboxamido)-2-(4-carboxyphenyl)acetamido)-2-hydroxy-3,4-dihydro-2H-benzo[e][1,2]oxaborinine-8-carboxylic acid] yielded an EC50 [1] of 30 to 100 µM.

With `CS(=O)(=O)N1CCN(C(=O)NC(C(=O)N[C@H]2Cc3ccc(F)c(C(=O)O)c3OB2O)c2ccc(O)c(O)c2Cl)C1=O` (stereo partly drawn) [Example 23, (3R)-3-(2-(2-chloro-3,4-dihydroxyphenyl)-2-(3-(methylsulfonyl)-2-oxoimidazolidine-1-carboxamido)acetamido)-7-fluoro-2-hydroxy-3,4-dihydro-2H-benzo[e][1,2]oxaborinine-8-carboxylic acid] the EC50 [1] was 30 to 100 µM.

For `O=C(NC(C(=O)N[C@H]1Cc2ccc(F)c(C(=O)O)c2OB1O)c1ncc(O)cc1F)c1ccc(O)c(O)c1Cl` (stereo partly drawn) [Example 8, (3R)-3-(2-(2-chloro-3,4-dihydroxybenzamido)-2-(3-fluoro-5-hydroxypyridin-2-yl)acetamido)-7-fluoro-2-hydroxy-3,4-dihydro-2H-benzo[e][1,2]oxaborinine-8-carboxylic acid], the EC50 [1] was over 100 µM.

For `NC(C(=O)N[C@H]1Cc2ccc(F)c(C(=O)O)c2OB1O)c1c(F)cc(O)c(O)c1Cl` (stereo partly drawn) [Example 25, (3R)-3-(2-amino-2-(2-chloro-6-fluoro-3,4-dihydroxyphenyl)acetamido)-7-fluoro-2-hydroxy-3,4-dihydro-2H-benzo[e][1,2]oxaborinine-8-carboxylic acid], the EC50 [1] was over 100 µM.

Compound `O=C(O)c1ccc(C(NC(=O)N2CCN(CCNC(=O)c3ccc(O)c(O)c3Cl)C(=O)C2=O)C(=O)N[C@H]2Cc3ccc(F)c(C(=O)O)c3OB2O)cc1F` (stereo partly drawn) [Example 11, (3R)-3-(2-(4-carboxy-3-fluorophenyl)-2-(4-(2-(2-chloro-3,4-dihydroxybenzamido)ethyl)-2,3-dioxopiperazine-1-carboxamido)acetamido)-7-fluoro-2-hydroxy-3,4-dihydro-2H-benzo[e][1,2]oxaborinine-8-carboxylic acid] has an EC50 [1] of 10 to 30 µM.

Work on `NCCCN1CCN(C(=O)N[C@@H](C(=O)N[C@H]2Cc3ccc(F)c(C(=O)O)c3OB2O)c2c(F)cc(O)c(O)c2Cl)C(=O)C1=O` (single isomer, unassigned) [Example 27] yielded an EC50 [1] of 30 to 100 µM.

`CCN1CCN(C(=O)NC(C(=O)N[C@H]2Cc3cccc(C(=O)O)c3OB2O)c2cccc(NC(=O)c3ccc(O)c(O)c3Cl)c2)C(=O)C1=O` (stereo partly drawn) [Example 73, (3R)-3-(2-(3-(2-chloro-3,4-dihydroxybenzamido)phenyl)-2-(4-ethyl-2,3-dioxopiperazine-1-carboxamido)acetamido)-2-hydroxy-3,4-dihydro-2H-benzo[e][1,2]oxaborinine-8-carboxylic acid] showed an EC50 [1] of under 10 µM and an MIC (N. gonorrhoeae WHO Q) of over 64 µg/mL.

`NCCCN1CCN(C(=O)N[C@@H](C(=O)N[C@H]2Cc3ccc(F)c(C(=O)O)c3OB2O)c2c(F)cc(O)c(O)c2F)C(=O)C1=O` (single isomer, unassigned) [Example 41] showed an EC50 [1] of 30 to 100 µM.

`NCCN1CCN(C(=O)N[C@@H](C(=O)N[C@H]2Cc3cccc(C(=O)O)c3OB2O)c2ccc(O)cc2Cl)C(=O)C1=O` (single isomer, unassigned) [Example 86] showed an EC50 [1] of 10 to 30 µM and an MIC (N. gonorrhoeae WHO Q) of over 64 µg/mL.

`NCCN1CCN(C(=O)N[C@@H](C(=O)N[C@H]2Cc3ccc(F)c(C(=O)O)c3OB2O)c2c(F)cc(O)c(O)c2Cl)C(=O)C1=O` (single isomer, unassigned) [Example 26] showed an EC50 [1] of 30 to 100 µM.

`NCCN1CCN(C(=O)N[C@@H](C(=O)N[C@H]2Cc3ccc(F)c(C(=O)O)c3OB2O)c2c(F)cc(O)c(O)c2F)C(=O)C1=O` (single isomer, unassigned) [Example 40] gave an EC50 [1] of over 100 µM.

`O=C(O)c1c(F)ccc2c1OB(O)[C@@H](NC(=O)[C@H](NC(=O)N1CCNC1=O)c1c(F)cc(O)c(O)c1Cl)C2` (single isomer, unassigned) [Example 34] showed an EC50 [1] of over 100 µM.
